Reference: US11466044B2 (WAYNE STATE UNIVERSITY, priority 2017, dated 2022)
In brackets after ≈: the same amount, converted by molar mass. Counter-ions that a name gives are not always drawn. Like-named read-outs stand apart in the source and are kept apart here.

Assays:
[1] = test system: MRSA; assay: MIC by broth microdilution, MRSA isolates; assay type: cell-based; conditions: Staphylococcus aureus, MRSA; for MIC50: Table 1 (Example 1); for MIC: Table 1 (Example 3)
[2] = test system: E coli wild type; assay: MIC by broth microdilution, wild type E coli; assay type: cell-based; conditions: Escherichia coli; for MIC50: Table 1 (Example 1)
[3] = test system: P aeruginosa; assay: MIC by broth microdilution, P aeruginosa isolates; assay type: cell-based, Pseudomonas aeruginosa; conditions: for MIC50: Pseudomonas aeruginosa, Table 1 (Example 1); for MIC: strain AG220 Pseudomonas aeruginosa ATCC27853, read-out: MIC AG220 P. aerugin
[4] = test system: E coli carrying specific resistance determinants; assay: MIC by broth microdilution, E coli carrying specific resistance determinants; assay type: cell-based; conditions: Escherichia coli
[5] = test system: wild type bacterial ribosomes; assay: in-vitro translation assay, bacterial ribosomes; assay type: biochemical; conditions: for IC50: bacterial ribosome, read-out: IC50 Bac
Text: (§1) The antiribosomal activity of these compounds was investigated with cell-free translation assays using both wild type bacterial ribosomes and hybrid ribosomes carrying eukaryotic decoding A sites enabling the prediction of selectivity.

[6] = test system: cytosolic ribosome (human chimeric); assay type: biochemical; conditions: for IC50: cytosolic, read-out: IC50 Cyt
Text: as §1

[7] = test system: mitochondrial ribosome (human chimeric); assay type: biochemical; conditions: for IC50: mitochondrial, read-out: IC50 Mit
Text: as §1

[8] = test system: Klebsiella pneumonia AG215; assay: MIC by broth microdilution, Klebsiella pneumonia; assay type: cell-based; conditions: Klebsiella pneumoniae; strain AG215 Klebsiella pneumonia; read-out: MIC AG215 K. pneumon
[9] = test system: Acinetobacter baumannii pittii AG225; assay: MIC by broth microdilution, Acinetobacter baumannii; assay type: cell-based; conditions: strain AG225 Acinetobacter baumannii pittii
[10] = test system: Enterobacter cloacae AG290; assay: MIC by broth microdilution, Enterobacter cloacae; assay type: cell-based; conditions: strain AG290 Enterobacter cloacae; read-out: MIC AG290 E. cloacae
[11] = test system: N. gonorrhoeae; assay: Disk diffusion, N. gonorrhoeae; assay type: cell-based; conditions: Neisseria gonorrhoeae
[12] = test system: M. smegmatis SZ380; assay: MIC by broth microdilution, M. smegmatis; conditions: Mycolicibacterium smegmatis
[13] = test system: M. abscessus; assay: MIC by broth microdilution, M. abscessus; assay type: cell-based; conditions: Mycobacteroides abscessus
[14] = test system: A1555G mutant mitochondrial ribosome (human chimeric); assay: in-vitro translation assay, human chimeric ribosomes, A1555G mutant mitochondrial decoding site; assay type: biochemical; conditions: Table 3 (Example 3)
Text: as §1

[15] = ATCC25922, strain AG212 E. coli (ATCC25922), read-out: MIC AG212 E. coli
[16] = SZ380, read-out: MIC SZ380 M. smegmatis, strain SZ380 Mycobacterium smegmatis

NCC1OC(OC2C(CNC=O)OC(OC3C(O)C(N)CC(N)C3OC3OC(CO)C(O)CC3N)C2O)C(N)C(O)C1O (stereo not drawn) [Compound 153, 3′,5″-Dideoxy-5″-formamido-paromomycin]
MIC50 ([1]; strain AG38, read-out: MIC50 MRSA AG38): 4 µg/mL (≈ 6.38 µM)
MIC50 ([1]; strain AG39, read-out: MIC50 MRSA AG39): > 128 µg/mL
MIC50 ([1]; strain AG42, read-out: MIC50 MRSA AG42): > 128 µg/mL
MIC50 ([1]; strain AG44, read-out: MIC50 MRSA AG44): 4 µg/mL (≈ 6.38 µM)
MIC ([2]; AG006 wt, Table 2 (Example 1), read-out: MIC E coli AG006 wt): 2 µg/mL (≈ 3.19 µM)
MIC ([2]; AG102 wt, Table 2 (Example 1), read-out: MIC E coli AG102 wt): 2 µg/mL (≈ 3.19 µM)
MIC ([2]; AG160 wt, Table 2 (Example 1), read-out: MIC E coli AG160 wt): 2 to 4 µg/mL (≈ 3.19 to 6.38 µM)
MIC [2, 15]: 4 µg/mL (≈ 6.38 µM)
MIC ([2]; WT, Table 3 (Example 1), read-out: MIC WT): 2 µg/mL (≈ 3.19 µM)
MIC ([2]; clinical isolate AG160 WT, Table 2 (Example 4), read-out: MIC AG160 E. coli WT): 2 to 4 µg/mL (≈ 3.19 to 6.38 µM)
MIC ([2]; engineered strain pH430 WT, Table 2 (Example 4), read-out: MIC pH430 E. coli WT): 2 µg/mL (≈ 3.19 µM)
MIC50 ([2]; strain AG01, read-out: MIC50 E coli AG01): 8 to 16 µg/mL (≈ 12.8 to 25.5 µM)
MIC50 ([2]; strain AG03, read-out: MIC50 E coli AG03): 8 µg/mL (≈ 12.8 µM)
MIC50 ([2]; strain AG55, read-out: MIC50 E coli AG55): 8 to 16 µg/mL (≈ 12.8 to 25.5 µM)
MIC50 ([3]; strain AG31, read-out: MIC50 P aeruginosa AG31): 32 to 64 µg/mL (≈ 51.1 to 102 µM)
MIC50 ([3]; strain AG32, read-out: MIC50 P aeruginosa AG32): 32 µg/mL (≈ 51.1 µM)
MIC50 ([3]; strain AG33, read-out: MIC50 P aeruginosa AG33): > 32 µg/mL
MIC [3]: 8 µg/mL (≈ 12.8 µM)
MIC ([4]; read-out: MIC AG037 E. coli APH(3′)-III): 2 µg/mL (≈ 3.19 µM)
MIC ([4]; read-out: MIC AG163 E. coli APH(3′)-I): 4 to 8 µg/mL (≈ 6.38 to 12.8 µM)
MIC ([4]; read-out: MIC AG166 E. coli APH(3′)-II): 8 to 16 µg/mL (≈ 12.8 to 25.5 µM)
MIC ([4]; read-out: MIC APH(3)-VI): 2 to 4 µg/mL (≈ 3.19 to 6.38 µM)
MIC ([4]; read-out: MIC APH(3′)-I): 2 µg/mL (≈ 3.19 µM)
MIC ([4]; read-out: MIC APH(3′)-II): 2 µg/mL (≈ 3.19 µM)
MIC ([4]; read-out: MIC APH(3′)-III): 2 µg/mL (≈ 3.19 µM)
MIC ([4]; read-out: MIC E coli AG007 ANT(3″) AAC(3)-I): 4 µg/mL (≈ 6.38 µM)
MIC ([4]; read-out: MIC E coli AG103 ArmA): 32 µg/mL (≈ 51.1 µM)
MIC ([4]; read-out: MIC E coli AG163/164 APH(3′)-Ia): 4 to 8 µg/mL (≈ 6.38 to 12.8 µM)
MIC ([4]; read-out: MIC E coli AG166 APH(3′)-IIa): 8 to 16 µg/mL (≈ 12.8 to 25.5 µM)
MIC ([4]; read-out: MIC pH421 E. coli APH(3′)-I): 2 µg/mL (≈ 3.19 µM)
MIC ([4]; read-out: MIC pH422 E. coli APH(3′)-II): 4 µg/mL (≈ 6.38 µM)
MIC ([4]; read-out: MIC pH423 E. coli APH(3′)-VI): 2 to 4 µg/mL (≈ 3.19 to 6.38 µM)
IC50 ([5]; Table 3 (Example 1)): 120 nM
IC50 ([6]; Table 3 (Example 1)): 90 µM
IC50 ([7]; Table 3 (Example 1)): 144 µM
MIC [8]: 1 to 2 µg/mL (≈ 1.6 to 3.19 µM)
MIC [9]: 4 µg/mL (≈ 6.38 µM)
MIC [10]: 2 µg/mL (≈ 3.19 µM)
zone of inhibition at 25 nmol/disc [11]: 13 mm
MIC [12, 16]: 1 µg/mL (≈ 1.6 µM)

CNC1C(OC2C(N)CC(N)C(O)C2OC2OC(CO)C(OC3OC(CN)C(O)C(O)C3N)C2O)OC(CN)C(O)C1O (stereo not drawn) [Compound 171, 2′-N-Methyl-neomycin acetate salt]
MIC ([1]; clinical isolate AG038, read-out: MIC MRSA AG038): 0.25 to 0.5 µg/mL
MIC ([1]; clinical isolate AG039, read-out: MIC MRSA AG039): > 32 µg/mL
MIC ([1]; clinical isolate AG042, read-out: MIC MRSA AG042): > 32 µg/mL
MIC ([2]; AG006 Wild type, Table 2 (Example 3), read-out: MIC E coli AG006 Wild type): 0.25 µg/mL
MIC ([2]; AG104 Wild type, Table 2 (Example 3), read-out: MIC E coli AG104 Wild type): 0.5 µg/mL
MIC [2, 15]: 1 µg/mL
MIC ([2]; WT, Table 4 (Example 3), read-out: MIC E. coli WT): 0.5 µg/mL
MIC ([2]; WT, Table 5 (Example 3), read-out: MIC E. coli WT): 0.5 µg/mL
MIC ([2]; clinical isolate AG001, Table 1 (Example 3), read-out: MIC E coli AG001): 1 µg/mL
MIC ([2]; clinical isolate AG003, Table 1 (Example 3), read-out: MIC E coli AG003): 1 µg/mL
MIC ([2]; clinical isolate AG055, Table 1 (Example 3), read-out: MIC E coli AG055): 1 µg/mL
MIC [3]: > 64 µg/mL
MIC ([4]; read-out: MIC E coli AG106 AAC(2′)): 0.5 µg/mL
MIC ([4]; read-out: MIC E. coli AAC(2′) AG106): 0.5 µg/mL
MIC ([4]; read-out: MIC E. coli AAC(2′) pH434): 4 µg/mL
MIC ([4]; read-out: MIC E. coli AG106 AAC(2′)-Ia): 0.5 µg/mL
MIC ([4]; read-out: MIC E. coli pGB2armA armA): 1 µg/mL
MIC ([4]; read-out: MIC E. coli pH434 AAC(2′)-Ib): 4 µg/mL
MIC ([13]; ATCC19977, ATCC 19977 WT, Table 5 (Example 3), read-out: MIC M. abscessus ATCC 19977 WT): 0.25 µg/mL
MIC ([13]; read-out: MIC M. abscessus engineered Δeis2): 0.063 µg/mL
MIC ([13]; ATCC, Table 4 (Example 3), read-out: MIC M. abscessus ATCC): 0.25 µg/mL
MIC ([13]; Clin. Isol., Table 4 (Example 3), read-out: MIC M. abscessus Clin. Isol.): 0.5 µg/mL
IC50 ([5]; Table 4 (Example 3)): 10 nM
selectivity for the bacterial ribosome over mitochondrial (wild type, A1555G mutant) and cytosolic ribosomes, in words ([5]; compared with the parent compound): increased selectivity for the bacterial ribosome
Selectivity for Binding to the Bacterial Ribosome over the Mutant Mitochondrial Ribosome [14]: 117
Selectivity for Binding to the Bacterial Ribosome over the Cytosolic Ribosome ([6]; Table 3 (Example 3)): 4000
IC50 ([6]; Table 4 (Example 3)): 37 µM
Selectivity for Binding to the Bacterial Ribosome over the Mitochondrial Ribosome ([7]; Table 3 (Example 3)): 483
IC50 ([7]; Table 4 (Example 3)): 4.7 µM
MIC [8]: 0.5 µg/mL
MIC [9]: 1 µg/mL
MIC [10]: 0.5 to 1 µg/mL
zone of inhibition at 25 nmol/disc [11]: 9 mm
MIC ([12]; SZ380, read-out: MIC M. smegmatis SZ380 WT, SZ380 WT, Table 5 (Example 3)): < 0.063 µg/mL
MIC [12, 16]: < 0.0625 µg/mL
